Patent US9695155B2, “Herbicidal substituted pyrimidinyloxy benzene compounds” (E. I. DU PONT DE NEMOURS AND COMPANY, priority 2013, dated 2017)

Legend:
Experiment in all cases: Test E postemergence
[1] = tested on: waterhemp_RES2 (ALS & HPPD resistant common waterhemp); type: in vivo, Amaranthus rudis
Description: (§1) Seeds of plant species selected from corn (Zea mays), soybean (Glycine max), velvetleaf (Abutilon theophrasti), lambsquarters (Chenopodium album), wild poinsettia (Euphorbia heterophylla), palmer pigweed (Amaranthus palmeri), waterhemp (common waterhemp, Amaranthus rudis), surinam grass (Brachiaria decumbens), large (Lg) crabgrass (Digitaria sanguinalis), Brazilian crabgrass (Digitaria horizontalis), fall panicum (Panicum dichotomiflorum), giant foxtail (Setaria faberii), green foxtail (Setaria viridis), goosegrass (Eleusine indica), johnsongrass (Sorghum halepense), ragweed (common ragweed, Ambrosia elatior), barnyardgrass (Echinochloa crus-galli), sandbur (southern sandbur, Cenchrus echinatus), arrowleaf sida (Sida rhombifolia), Italian ryegrass (Lolium multiflorum), dayflower (Virginia (VA) dayflower, Commelina virginica), field bindweed (Convolvulus arvensis), morningglory (Ipomoea coccinea), nightshade (eastern black nightshade, Solanum ptycanthum), kochia (Kochia scoparia), yellow nutsedge (Cyperus esculentus), cocklebur (common cocklebur, Xanthium strumarium), smartweed (ladysthumb smartweed, and hairy beggarticks (Bidens pilosa), were planted into a silt loam soil and treated preemergence with test chemicals formulated in a non-phytotoxic solvent mixture which included a surfactant.
(§2) At the same time, plants from these crop and weed species and also horseweed (Canada horseweed, Conyza canadensis), waterhemp_RES1, (ALS & Triazine resistant common waterhemp, Amaranthus rudis), and waterhemp_RES2, (ALS & HPPD resistant common waterhemp, Amaranthus rudis) were planted in pots containing Redi-Earth® planting medium (Scotts Company, 14111 Scottslawn Road, Marysville, Ohio 43041) comprising spaghnum peat moss, vermiculite, wetting agent and starter nutrients were treated with postemergence applications of test chemicals formulated in the same manner. Plants ranged in height from 2 to 18 cm for postemergence treatments (1- to 4-leaf stage). Treated plants and controls were maintained in a greenhouse for 14 to 21 days, after which time all species were compared to controls and visually evaluated. Plant response ratings, summarized in Table E, are based on a scale of 0 to 100 where 0 is no effect and 100 is complete control. A dash (-) response means no test result.

waterhemp = type: in vivo, Amaranthus rudis
Description: as §1, §2

sandbur = type: in vivo, Cenchrus echinatus
Description: as §1, §2

hairy beggarticks = type: in vivo, Bidens pilosa
Description: as §1, §2

[2] = Postemergence, 31 g ai/ha, scale 0 to 100
[3] = Postemergence, 62 g ai/ha, scale 0 to 100
[4] = Postemergence, 125 g ai/ha, scale 0 to 100
[5] = Postemergence, 250 g ai/ha, scale 0 to 100
[6] = postemergence, 16 g ai/ha, scale 0 to 100, 0 no effect, 100 complete control
[7] = postemergence, 8 g ai/ha, scale 0 to 100, 0 no effect, 100 complete control

Row | Compound | Plant response rating, Waterhemp_RES2 [1, 2] | Plant response rating, Waterhemp_RES2 [1, 3] | Plant response rating, Waterhemp_RES2 [1, 4] | Plant response rating, Waterhemp_RES2 [1, 6] | Plant response rating, Waterhemp (waterhemp; [2]) | Plant response rating, Waterhemp (waterhemp; [3]) | Plant response rating, Waterhemp (waterhemp; [4]) | Plant response rating, Waterhemp (waterhemp; [6]) | Plant response rating, Sandbur (sandbur; [2]) | Plant response rating, Sandbur (sandbur; [3]) | Plant response rating, Sandbur (sandbur; [4]) | Plant response rating, Sandbur (sandbur; [6]) | Plant response rating, Beggarticks (hairy beggarticks; [2]) | Plant response rating, Beggarticks (hairy beggarticks; [3]) | Plant response rating, Beggarticks (hairy beggarticks; [4]) | Plant response rating, Beggarticks (hairy beggarticks; [6]) | further results
1 | Fc1cnc(Oc2ccccc2-n2cc(Br)cn2)nc1 [Compound 10, 2-[2-(4-bromo-1H-pyrazol-1-yl)phenoxy]-5-fluoropyrimidine] |  |  |  |  |  |  |  |  |  |  |  |  |  |  |  |  | pest or weed control at 31 g/ha ([1]; Amaranthus tuberculatus, post-emergence, Postemergence, 31 g ai/ha, scale 0 to 100, read-out: Plant response rating, Waterhemp_RES2): 60%; pest or weed control at 62 g/ha ([1]; Amaranthus tuberculatus, post-emergence, Postemergence, 62 g ai/ha, scale 0 to 100, read-out: Plant response rating, Waterhemp_RES2): 75%; pest or weed control at 125 g/ha ([1]; Amaranthus tuberculatus, post-emergence, Postemergence, 125 g ai/ha, scale 0 to 100, read-out: Plant response rating, Waterhemp_RES2): 80%; pest or weed control at 250 g/ha ([1]; Amaranthus tuberculatus, post-emergence, Postemergence, 250 g ai/ha, scale 0 to 100, read-out: Plant response rating, Waterhemp_RES2): 90%; pest or weed control at 16 g/ha ([1]; Amaranthus tuberculatus, post-emergence, postemergence, 16 g ai/ha, scale 0 to 100, 0 no effect, 100 complete control, read-out: Plant response rating, Waterhemp_RES2): 50%; pest or weed control at 31 g/ha (waterhemp; Amaranthus tuberculatus, post-emergence, Postemergence, 31 g ai/ha, scale 0 to 100, read-out: Plant response rating, Waterhemp): 80%; pest or weed control at 62 g/ha (waterhemp; Amaranthus tuberculatus, post-emergence, Postemergence, 62 g ai/ha, scale 0 to 100, read-out: Plant response rating, Waterhemp): 85%; pest or weed control at 125 g/ha (waterhemp; Amaranthus tuberculatus, post-emergence, Postemergence, 125 g ai/ha, scale 0 to 100, read-out: Plant response rating, Waterhemp): 95%; pest or weed control at 250 g/ha (waterhemp; Amaranthus tuberculatus, post-emergence, Postemergence, 250 g ai/ha, scale 0 to 100, read-out: Plant response rating, Waterhemp): 95%; pest or weed control at 31 g/ha (sandbur; Cenchrus echinatus, post-emergence, Postemergence, 31 g ai/ha, scale 0 to 100, read-out: Plant response rating, Sandbur): 0%; pest or weed control at 62 g/ha (sandbur; Cenchrus echinatus, post-emergence, Postemergence, 62 g ai/ha, scale 0 to 100, read-out: Plant response rating, Sandbur): 0%; pest or weed control at 125 g/ha (sandbur; Cenchrus echinatus, post-emergence, Postemergence, 125 g ai/ha, scale 0 to 100, read-out: Plant response rating, Sandbur): 0%; pest or weed control at 250 g/ha (sandbur; Cenchrus echinatus, post-emergence, Postemergence, 250 g ai/ha, scale 0 to 100, read-out: Plant response rating, Sandbur): 0%; pest or weed control at 16 g/ha (sandbur; Cenchrus echinatus, post-emergence, postemergence, 16 g ai/ha, scale 0 to 100, 0 no effect, 100 complete control, read-out: Plant response rating, Sandbur): 0%; pest or weed control at 31 g/ha (hairy beggarticks; Bidens pilosa, post-emergence, Postemergence, 31 g ai/ha, scale 0 to 100, read-out: Plant response rating, Beggarticks): 30%; pest or weed control at 62 g/ha (hairy beggarticks; Bidens pilosa, post-emergence, Postemergence, 62 g ai/ha, scale 0 to 100, read-out: Plant response rating, Beggarticks): 40%; pest or weed control at 125 g/ha (hairy beggarticks; Bidens pilosa, post-emergence, Postemergence, 125 g ai/ha, scale 0 to 100, read-out: Plant response rating, Beggarticks): 50%; pest or weed control at 250 g/ha (hairy beggarticks; Bidens pilosa, post-emergence, Postemergence, 250 g ai/ha, scale 0 to 100, read-out: Plant response rating, Beggarticks): 80%; pest or weed control at 16 g/ha (hairy beggarticks; Bidens pilosa, post-emergence, postemergence, 16 g ai/ha, scale 0 to 100, 0 no effect, 100 complete control, read-out: Plant response rating, Beggarticks): 10%
2 | FC(F)(F)c1cnn(-c2ccccc2Oc2ncc(Cl)cn2)c1 [Compound 16] | 50 | 60 | 70 | 25 | 60 | 85 | 90 | 60 | 0 | 0 | 0 | 0 | 30 | 50 | 50 | 30 | Plant response rating, Waterhemp_RES2 [1, 5]: 85; Plant response rating, Waterhemp (waterhemp; [5]): 90; Plant response rating, Sandbur (sandbur; [5]): 0; Plant response rating, Beggarticks (hairy beggarticks; [5]): 60
3 | Clc1cnc(Oc2cccc(Br)c2-n2cc(Br)cn2)nc1 [Compound 65] | 90 | 95 | 98 | 80 | 70 | 75 | 95 | 50 | 0 | 0 | 0 | 0 | 40 | 50 | 50 | 35 | Plant response rating, Waterhemp (waterhemp; [7]): 60; Plant response rating, Sandbur (sandbur; [7]): 0; Plant response rating, Beggarticks (hairy beggarticks; [7]): 20
